In patent EP4806446A2:
Like-named read-outs stand apart in the source and are kept apart here.

Settings: ester bond, DCM

In the case of `CCn1c(-c2cccnc2[C@H](C)OC)c2c3cc(ccc31)N1CCO[C@@H](C[C@H](NC(=O)OC(C)(C)C)C(=O)N3N[C@H](C(=O)OCC(C)(C)C2)C2CC3C2)C1`, the ring closure, yield of all isomers (from CCn1c(-c2cccnc2[C@H](C)OC)c(CC(C)(C)CO)c2cc(N3CCO[C@@H](C[C@H](NC(=O)OC(C)(C)C)C(=O)N4N[C@H](C(=O)O)C5CC4C5)C3)ccc21, PyBOP, DMAP, 2.6 mM, 25.0 °C, 16.0 h) is reported as 96.2%.
With `CCn1c(-c2cccnc2[C@H](C)OC)c2c3cc(ccc31)N1CCO[C@@H](C[C@H](NC(=O)OC(C)(C)C)C(=O)N(C)NCC(=O)OCC(C)(C)C2)C1` the ring closure, yield of all isomers (from CCn1c(-c2cccnc2[C@H](C)OC)c(CC(C)(C)CO)c2cc(N3CCO[C@@H](C[C@H](NC(=O)OC(C)(C)C)C(=O)N(C)NCC(=O)O)C3)ccc21, EDCI/HOBt, DIEA, 6.5 mM, 25.0 °C, 16.0 h) was 44%.
In the case of `CCn1c(-c2cc(N3CCN(C(=O)OCc4ccccc4)CC3)cnc2[C@H](C)OC)c2c3cc(ccc31)-c1csc(n1)C[C@H](NC(=O)OC(C)(C)C)C(=O)N1N[C@@H](C(=O)OCC(C)(C)C2)C2CC1C2`, the ring closure, yield of all isomers (from CCn1c(-c2cc(N3CCN(C(=O)OCc4ccccc4)CC3)cnc2[C@H](C)OC)c(CC(C)(C)CO)c2cc(-c3csc(C[C@H](NC(=O)OC(C)(C)C)C(=O)N4N[C@@H](C(=O)O)C5CC4C5)n3)ccc21, EDCI/HOBt/DIEA, 5.2 mM, 35.0 °C) is reported as 49%.
With `CCn1c(-c2cc(N3CCN(C(=O)OCc4ccccc4)CC3)cnc2[C@H](C)OC)c2c3cc(ccc31)-c1csc(n1)C[C@H](NC(=O)OC(C)(C)C)C(=O)N(C)NCC(=O)OCC(C)(C)C2` the ring closure, yield of all isomers (from CCn1c(-c2cc(N3CCN(C(=O)OCc4ccccc4)CC3)cnc2[C@H](C)OC)c(CC(C)(C)CO)c2cc(-c3csc(C[C@H](NC(=O)OC(C)(C)C)C(=O)N(C)NCC(=O)O)n3)ccc21, EDCI/HOBt/DIEA, 4.25 mM, 25.0 °C, 16.0 h) was 38.2%.
`C=C[C@@H]1CCN2N[C@@H]1C(=O)OCC(C)(C)Cc1c(-c3cc(N4CCN(C(=O)OCc5ccccc5)CC4)cnc3[C@H](C)OC)n(CC)c3ccc(cc13)-c1csc(n1)C[C@H](NC(=O)OC(C)(C)C)C2=O` showed a ring closure, yield of all isomers (from C=C[C@@H]1CCN(C(=O)[C@H](Cc2nc(-c3ccc4c(c3)c(CC(C)(C)CO)c(-c3cc(N5CCN(C(=O)OCc6ccccc6)CC5)cnc3[C@H](C)OC)n4CC)cs2)NC(=O)OC(C)(C)C)N[C@@H]1C(=O)O, EDCI/HOBt/DIEA, 10.0 mM, 25.0 °C, 16.0 h) of 36.7%.
`CCn1c(-c2cc(N3CCN(C4CC4)CC3)cnc2[C@H](C)OC)c2c3cc(ccc31)-c1nnc(o1)C[C@H](NC(=O)OCc1ccccc1)C(=O)N1N[C@H](C(=O)OCC(C)(C)C2)C2CC1C2` showed a ring closure, yield of all isomers (from CCn1c(-c2cc(N3CCN(C4CC4)CC3)cnc2[C@H](C)OC)c(CC(C)(C)CO)c2cc(-c3nnc(C[C@H](NC(=O)OCc4ccccc4)C(=O)N4N[C@H](C(=O)O)C5CC4C5)o3)ccc21, PyBOP, DMAP, 6.64 mM, 25.0 °C, 16.0 h, 2 steps) of 29%.
For `CCn1c(-c2cc(N3CCN(C(=O)OCc4ccccc4)CC3)cnc2[C@H](C)OC)c2c3cc(ccc31)-c1cccc(c1)C[C@H](NC(=O)OC(C)(C)C)C(=O)N1N[C@H](C(=O)OCC(C)(C)C2)C2CC1C2`, the ring closure, yield of all isomers (from CCn1c(-c2cc(N3CCN(C(=O)OCc4ccccc4)CC3)cnc2[C@H](C)OC)c(CC(C)(C)CO)c2cc(-c3cccc(C[C@H](NC(=O)OC(C)(C)C)C(=O)N4N[C@H](C(=O)O)C5CC4C5)c3)ccc21, EDCI/HOBt/DIEA, 6.0 mM, 25.0 °C, 16.0 h) was 27%.
In the case of `CCn1c(-c2cc(N3CCN(C(=O)OCc4ccccc4)CC3)cnc2[C@H](C)OC)c2c3cc(ccc31)N1CCO[C@@H](C[C@H](NC(=O)OC(C)(C)C)C(=O)N3N[C@H](C(=O)OCC(C)(C)C2)C2CC3C2)C1`, the ring closure, yield of all isomers (from CCn1c(-c2cc(N3CCN(C(=O)OCc4ccccc4)CC3)cnc2[C@H](C)OC)c(CC(C)(C)CO)c2cc(N3CCO[C@@H](C[C@H](NC(=O)OC(C)(C)C)C(=O)N4N[C@H](C(=O)O)C5CC4C5)C3)ccc21, PyBOP/DMAP, 9.8 mM, 35.0 °C, 0.5 h) is reported as 16%.
For `CCn1c(-c2cc(N3CCN(C4CC4)CC3)cnc2[C@H](C)OC)c2c3cc(ccc31)-c1csc(n1)C[C@H](NC(=O)OC(C)(C)C)C(=O)N(C)NCC(=O)OCC(C)(C)C2`, the ring closure, yield of all isomers (from CCn1c(-c2cc(N3CCN(C4CC4)CC3)cnc2[C@H](C)OC)c(CC(C)(C)CO)c2cc(-c3csc(C[C@H](NC(=O)OC(C)(C)C)C(=O)N(C)NCC(=O)O)n3)ccc21, PyBOP/DMAP, 5.9 mM, 0.0 °C, 1.0 h) was 27%.
Work on `CCn1c(-c2cc(N3CCN(C)CC3)cnc2[C@H](C)OC)c2c3cc(ccc31)-c1csc(n1)C[C@H](NC(=O)OC(C)(C)C)C(=O)N(C)NCC(=O)OCC(C)(C)C2` yielded a ring closure, yield of all isomers (from CCn1c(-c2cc(N3CCN(C)CC3)cnc2[C@H](C)OC)c(CC(C)(C)CO)c2cc(-c3csc(C[C@H](NC(=O)OC(C)(C)C)C(=O)N(C)NCC(=O)O)n3)ccc21, PyBOP/DMAP, 0.81 mM, 0.0 °C, 1.0 h) of 42%.
Work on `CCn1c(-c2cc(N3CCN(C)CC3)cnc2[C@H](C)OC)c2c3cc(ccc31)-c1csc(n1)C[C@H](NC(=O)OC(C)(C)C)C(=O)N1N[C@H](C(=O)OCC(C)(C)C2)C2CC1C2` yielded a ring closure, yield of all isomers (from CCn1c(-c2cc(N3CCN(C)CC3)cnc2[C@H](C)OC)c(CC(C)(C)CO)c2cc(-c3csc(C[C@H](NC(=O)OC(C)(C)C)C(=O)N4N[C@H](C(=O)O)C5CC4C5)n3)ccc21, PyBOP/DMAP, 5.8 mM, 25.0 °C, 5.0 h) of 48.8%.
